From US20210380548A1, “Fused [1,2,4]Thiadiazine Derivatives Which Act as KAT Inhibitors of the MYST Family” (CTxT Pty Limited, priority 2017, published 2021)
pIC50: −log10 of the molar value.

Experiments:
MOZ-KAT6A [1] = biological target: T1, MOZ-KAT6A (Homo sapiens, UniProt Q92794, A567V); experiment: Acetyltransferase biochemical assay (AlphaScreen), KAT6A; conditions: Table 2 (MOZ-KAT6A); 10 μM Acetyl coenzyme A, histone H3.1, 5 nM enzyme
T1 construct: encoding amino acid residues 507 to 778 (Uniprot Q92794-1) of human KAT6A; made in house; host or cells: E. coli BL21 DE3

TIP60-KAT5 [2] = biological target: T2, TIP60-KAT5 (Homo sapiens, UniProt Q92993); experiment: Acetyltransferase biochemical assay (AlphaScreen), KAT5; conditions: Table 1 (TIP60-KAT5); 0.4 μM Acetyl coenzyme A, histone H4, 10 nM enzyme
T2 construct: encoding amino acid residues 2 to 461 (Uniprot Q92993-2) of human KAT5 isoform; made in house; host or cells: E. coli BL21 DE3

HBO-KAT7 [3] = biological target: T3, HBO-KAT7 (Homo sapiens, UniProt O95251); experiment: Acetyltransferase biochemical assay (AlphaScreen), KAT7; conditions: Table 3 (HBO-KAT7); 0.4 μM Acetyl coenzyme A, histone H3.1, 40 nM enzyme
T3 construct: encoding amino acid residues 325 to 611 (Uniprot 095251-1) of human KAT7; made in house; host or cells: E. coli BL21 DE3 RIL

HBO-KAT7 [4] = biological target: T3, HBO-KAT7; experiment: Revised Acetyltransferase Biochemical Assay, KAT7; conditions: Table 9 (HBO-KAT7), 1 μM Acetyl coenzyme A
TIP60-KAT5 [5] = biological target: T2, TIP60-KAT5; experiment: Revised Acetyltransferase Biochemical Assay, KAT5; conditions: 10 nM KAT5, 1 μM AcCoA, 100 nM histone H4, 90 min
MOZ-KAT6A [6] = biological target: T1, MOZ-KAT6A; experiment: Revised Acetyltransferase Biochemical Assay, KAT6A; conditions: Table 8 (MOZ-KAT6A), 1 μM Acetyl coenzyme A
MOF-KAT8 = biological target: T4, MOF-KAT8 (Homo sapiens, UniProt Q9H7Z6); experiment: Revised Acetyltransferase Biochemical Assay, KAT8
T4 sequence (Q9H7Z6 177-447): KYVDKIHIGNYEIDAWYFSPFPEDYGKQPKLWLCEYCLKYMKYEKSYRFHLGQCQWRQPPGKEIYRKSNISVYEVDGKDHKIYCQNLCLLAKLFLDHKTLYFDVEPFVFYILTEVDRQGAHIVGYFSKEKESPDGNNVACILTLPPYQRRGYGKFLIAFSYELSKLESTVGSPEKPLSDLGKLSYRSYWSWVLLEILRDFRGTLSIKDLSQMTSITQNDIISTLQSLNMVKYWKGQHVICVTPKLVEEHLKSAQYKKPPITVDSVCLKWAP

T2 sequence (Q92993 2-461 isoform Q92993-2): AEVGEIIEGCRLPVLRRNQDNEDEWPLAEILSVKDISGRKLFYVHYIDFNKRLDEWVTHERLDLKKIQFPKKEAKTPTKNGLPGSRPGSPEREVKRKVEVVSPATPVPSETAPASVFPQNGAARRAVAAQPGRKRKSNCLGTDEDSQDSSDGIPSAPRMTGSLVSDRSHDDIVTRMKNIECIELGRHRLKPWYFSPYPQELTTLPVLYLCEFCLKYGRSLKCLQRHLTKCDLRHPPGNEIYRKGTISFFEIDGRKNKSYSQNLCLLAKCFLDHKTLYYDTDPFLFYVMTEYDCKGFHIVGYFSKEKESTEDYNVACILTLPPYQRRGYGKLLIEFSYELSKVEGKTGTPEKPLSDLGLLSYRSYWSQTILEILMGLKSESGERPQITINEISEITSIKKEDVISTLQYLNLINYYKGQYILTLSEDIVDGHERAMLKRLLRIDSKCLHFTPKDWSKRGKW
T1 sequence (Q92794 507-778 A567V limits assumed): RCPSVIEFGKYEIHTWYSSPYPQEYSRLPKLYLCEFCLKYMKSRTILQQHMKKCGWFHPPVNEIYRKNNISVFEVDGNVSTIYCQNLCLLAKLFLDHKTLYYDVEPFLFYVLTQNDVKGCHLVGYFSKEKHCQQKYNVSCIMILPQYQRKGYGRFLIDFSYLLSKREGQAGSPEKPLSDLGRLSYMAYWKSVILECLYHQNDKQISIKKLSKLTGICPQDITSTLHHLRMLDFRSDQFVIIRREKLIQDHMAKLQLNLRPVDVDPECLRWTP
T3 sequence (O95251 with tags, fused parts or gaps): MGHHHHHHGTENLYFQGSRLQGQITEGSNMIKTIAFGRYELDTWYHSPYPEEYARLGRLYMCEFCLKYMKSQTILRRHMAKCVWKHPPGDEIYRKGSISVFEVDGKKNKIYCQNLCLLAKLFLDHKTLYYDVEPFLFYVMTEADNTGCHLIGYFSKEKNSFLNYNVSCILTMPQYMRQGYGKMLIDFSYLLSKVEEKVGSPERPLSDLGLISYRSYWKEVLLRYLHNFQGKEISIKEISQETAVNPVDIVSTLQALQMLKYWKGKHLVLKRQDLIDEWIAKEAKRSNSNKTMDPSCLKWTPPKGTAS

SMILES	pIC50 (MOZ-KAT6A [1])	pIC50 (TIP60-KAT5 [2])	pIC50 (HBO-KAT7 [3])	pIC50 (HBO-KAT7 [4])	pIC50 (TIP60-KAT5 [5])	pIC50 (MOZ-KAT6A [6])	pIC50 (MOF-KAT8)
CNC(=O)Cn1cc(-c2ccc3c(c2)S(=O)(=O)NC(C(=O)NCC(c2ccccc2)c2ncco2)=N3)cn1 (centres unmarked) [Example 9, 7-(1-(2-(Methylamino)-2-oxoethyl)-1H-pyrazol-4-yl)-N-(2-(oxazol-2-yl)-2-phenylethyl)-2H-benzo[e][1,2,4]thiadiazine-3-carboxamide 1,1-dioxide]	7.38	4.91	4.70	–	–	–	–
Nc1ccc2c(c1)S(=O)(=O)NC(C(=O)NCC(c1ccccc1)c1ncco1)=N2 (centres unmarked) [Example 11, 7-Amino-N-(2-(oxazol-2-yl)-2-phenylethyl)-2H-benzo[e][1,2,4]thiadiazine-3-carboxamide 1,1-dioxide]	5.74	4.93	5.60	–	–	–	–
O=C(NCCc1ccccc1Br)C1=Nc2ccccc2S(=O)(=O)N1 [Example 28, N-(2-Bromophenethyl)-2H-benzo[e][1,2,4]thiadiazine-3-carboxamide 1,1-dioxide]	5.35	4.20	4.80	–	–	–	–
O=C(NCCc1ccccc1O)C1=Nc2ccccc2S(=O)(=O)N1 [Example 29, N-(2-Hydroxyphenethyl)-2H-benzo[e][1,2,4]thiadiazine-3-carboxamide 1,1-dioxide]	4.54	< 3.90	4.07	–	–	–	–
O=C(NCCc1ccccc1I)C1=Nc2ccccc2S(=O)(=O)N1 [Example 31, N-(2-Iodophenethyl)-2H-benzo[e][1,2,4]thiadiazine-3-carboxamide 1,1-dioxide]	5.08	4.82	5.23	–	–	–	–
O=C(NCCc1ccccc1-c1cccnc1)C1=Nc2ccccc2S(=O)(=O)N1 [Example 34, N-(2-(Pyridin-3-yl)phenethyl)-2H-benzo[e][1,2,4]thiadiazine-3-carboxamide 1,1-dioxide]	4.29	< 3.90	4.22	4.94	4.15	5.24	–
N#Cc1ccccc1CCNC(=O)C1=Nc2ccccc2S(=O)(=O)N1 [Example 35, N-(2-Cyanophenethyl)-2H-benzo[e][1,2,4]thiadiazine-3-carboxamide 1,1-dioxide]	4.22	< 3.90	4.50	–	–	–	–
CCOC(=O)NC(CNC(=O)C1=Nc2ccccc2S(=O)(=O)N1)c1ccccc1 (centres unmarked) [Example 49, Ethyl (2-(1,1-dioxido-2H-benzo[e][1,2,4]thiadiazine-3-carboxamido)-1-phenylethyl)carbamate]	5.12	< 3.90	–	5.50	< 3.90	5.77	–
O=C(NCC(c1ccccc1)n1cccc1)C1=Nc2ccccc2S(=O)(=O)N1 (centres unmarked) [Example 54, N-(2-phenyl-2-(1H-pyrrol-1-yl)ethyl)-2H-benzo[e][1,2,4]thiadiazine-3-carboxamide 1,1-dioxide]	5.05	4.24	5.40	–	–	–	–
O=C(NCC(c1ccccc1F)n1cccc1)C1=Nc2ccccc2S(=O)(=O)N1 (centres unmarked) [Example 55, N-(2-(2-fluorophenyl)-2-(1H-pyrrol-1-yl)ethyl)-2H-benzo[e][1,2,4]thiadiazine-3-carboxamide 1,1-dioxide]	5.25	4.44	5.35	–	–	–	–
O=C(NCC(c1ccccc1)c1nc(CO)no1)C1=Nc2ccc(I)cc2S(=O)(=O)N1 (centres unmarked) [Example 59, N-(2-(3-(hydroxymethyl)-1,2,4-oxadiazol-5-yl)-2-phenylethyl)-7-iodo-2H-benzo[e][1,2,4]thiadiazine-3-carboxamide 1,1-dioxide]	–	–	–	6.39	6.14	7.49	4.57
O=C(NCCc1ccccn1)C1=Nc2ccc(Br)cc2S(=O)(=O)N1 [Example 79]	4.45	4.06	4.53	–	–	–	–
O=C(NCCc1cccnc1)C1=Nc2ccc(Br)cc2S(=O)(=O)N1 [Example 80]	4.23	< 3.90	3.98	–	–	–	–
O=C(NCCc1ccccc1F)C1=Nc2ccc(Br)cc2S(=O)(=O)N1 [Example 81]	5.79	5.31	–	5.34	5.18	6.26	–
O=C(NCC(c1ccccc1)c1ncco1)C1=Nc2cnccc2S(=O)(=O)N1 (centres unmarked) [Example 98]	4.44	< 3.90	4.16	–	–	–	–
O=C(NCC(c1ccccc1)c1ncco1)C1=Nc2ncccc2S(=O)(=O)N1 (centres unmarked) [Example 99]	4.80	< 3.90	5.04	–	–	–	–

SMILES	pIC50 (MOZ-KAT6A [1])	pIC50 (TIP60-KAT5 [2])	pIC50 (HBO-KAT7 [3])	pIC50 (HBO-KAT7 [4])	pIC50 (TIP60-KAT5 [5])	pIC50 (MOZ-KAT6A [6])	pIC50 (MOF-KAT8)
Nc1ccc(CCNC(=O)C2=Nc3ccc(I)cc3S(=O)(=O)N2)cc1 [Example 100]	4.38	4.39	3.95	–	–	–	–
O=C(NCCc1cccc(O)c1)C1=Nc2ccc(I)cc2S(=O)(=O)N1 [Example 102]	4.97	4.57	4.22	–	–	–	–
O=C(NCCc1ccccn1)C1=Nc2ccc(I)cc2S(=O)(=O)N1 [Example 107]	4.92	4.68	4.63	–	–	–	–
O=C(NCCc1cccnc1)C1=Nc2ccc(I)cc2S(=O)(=O)N1 [Example 108]	4.94	4.11	4.30	–	–	–	–
COC(=O)C(CNC(=O)C1=Nc2ccccc2S(=O)(=O)N1)c1ccccc1 (centres unmarked) [Example 112, Methyl 3-(1,1-dioxido-2H-benzo[e][1,2,4]thiadiazine-3-carboxamido)-2-phenylpropanoate]	5.34	4.73	5.39	–	–	–	–
O=C(NCCc1ccccc1C(F)(F)F)C1=Nc2ccc(I)cc2S(=O)(=O)N1 [Example 118]	–	5.64	5.52	6.39	6.68	7.34	< 3.90
O=C(NCC(c1ccccc1)c1ncco1)C1=Nc2ccc(C(F)(F)F)cc2S(=O)(=O)N1 (centres unmarked) [Example 120]	–	5.91	5.45	6.85	6.65	7.77	4.38
COC(=O)NC(CNC(=O)C1=Nc2ccccc2S(=O)(=O)N1)c1ccccc1 (centres unmarked) [Example 129]	–	< 3.90	< 3.90	4.61	4.23	6.60	< 3.90
O=C(NCC(c1ccccc1)c1ncco1)C1=Nc2ccc(-c3cscn3)cc2S(=O)(=O)N1 (centres unmarked) [Example 135]	6.77	5.50	5.60	6.38	6.19	7.33	–
O=C(NCC(c1ncco1)c1ccccc1CO)C1=Nc2ccccc2S(=O)(=O)N1 (centres unmarked) [Example 157]	–	–	–	4.65	< 3.90	5.06	< 3.90
O=C(NCC(c1cccc(-c2ccccc2)c1)c1ncco1)C1=Nc2ccccc2S(=O)(=O)N1 (centres unmarked) [Example 158]	–	–	–	5.26	4.57	5.76	4.51
O=C(NCC(c1cccc(I)c1)c1ncco1)C1=Nc2ccccc2S(=O)(=O)N1 (centres unmarked) [Example 160, N-(2-(3-iodophenyl)-2-(oxazol-2-yl)ethyl)-2H-benzo[e][1,2,4]thiadiazine-3-carboxamide 1,1-dioxide]	–	–	–	5.78	4.88	6.33	5.31
O=C(NCC(c1ncco1)c1ccccc1-c1ccccc1)C1=Nc2ccccc2S(=O)(=O)N1 (centres unmarked) [Example 161]	–	–	–	5.36	5.04	6.57	4.64
CC(CNC(=O)C1=Nc2ccccc2S(=O)(=O)N1)(c1ccccc1)c1ccccc1 [Example 206]	5.02	4.43	5.14	5.92	4.86	5.86	–
N#Cc1cccc(C(CNC(=O)C2=Nc3ccccc3S(=O)(=O)N2)c2ncco2)c1 (centres unmarked) [Example 227, N-(2-(3-Cyanophenyl)-2-(oxazol-2-yl)ethyl)-2H-benzo[e][1,2,4]thiadiazine-3-carboxamide 1,1-dioxide]	–	–	–	5.35	4.01	5.87	< 3.90
O=C(NCC(F)(F)c1ccccc1OC(F)F)C1=Nc2ccc(Cl)cc2S(=O)(=O)N1 [Example 232, 7-chloro-N-(2-(2-(difluoromethoxy)phenyl)-2,2-difluoroethyl)-2H-benzo[e][1,2,4]thiadiazine-3-carboxamide 1,1-dioxide]	–	–	–	6.41	5.56	6.60	4.46
